Experimental data published in PMC5333395, “Assessing histone demethylase inhibitors in cells: lessons learned” (Epigenetics & Chromatin, 2017).
Read-outs that look alike come from different tables or passages of the source.

Legend:
[1] = target: T1, KDM5B (Homo sapiens, UniProt Q9UGL1); test: High-content immunofluorescence (IF) assay, overexpressed full-length FLAG-tagged KDM in HeLa cells; format: cell-based; parameters: transiently transfecting the full-length FLAG-tagged demethylase (WT) into cells; expressed in transfected cells; host or cells: HeLa; conditions: for EC50: HeLa cells overexpressing WT KDM5B, H3K4me3 mark, 24 h, read-out: KDM5B, in cells, EC50 by IF assay (head: IC50); for Effect on H3K4me3 mark in KDM5B IF assay, in words: HeLa cells transfected with KDM5B
Description: HeLa cells (ATCC) were cultured at 37 °C and 5% CO2 in Minimal Essential Media—Eagle (Sigma-Aldrich, UK) supplemented with 10% heat-inactivated foetal calf serum (FCS) (Gibco, UK), and 1% L-glutaMAX (Gibco, UK) in T75 flasks (Sarstedt, UK) and passaged regularly with TrypLE (Life Technologies, UK) before cells reached confluence. On day 0, 7000 cells per well were plated on a 96-well clear bottom CellCarrier plate (PerkinElmer, UK). The next day the cells were transfected with Lipofectamine 3000 (ThermoFisher Scientific, UK) following the manufacturer’s instructions. Briefly, 0.1 µg of plasmid DNA (encoding for the respective demethylase) and 0.15 µL of Lipofectamine 3000 were diluted in separate tubes containing 5 µL OptiMEM. 0.15 µL of P3000 was added to the tube with the DNA. The two solutions were then mixed gently and allowed to incubate for 5 min at room temperature. Next, the DNA-lipid complex was added to the cells for 4 h at 37 °C and 5% CO2.
Compound dilutions were made in a 96-well PCR plate (Starlab, UK). The culture medium was supplemented with 0.4% DMSO so that the solvent concentration was maintained throughout. Compounds were serially diluted at a 1:2 or 1:3 dilution ratio. Next, the cell culture plate was removed from the incubator and the medium was gently aspirated and replaced with the fresh medium containing diluted compounds.
Then cells were rinsed once with PBS and blocked for 30 min at room temperature using 3% v/v foetal calf serum diluted in PBS.

[2] = target: KDM5C (Homo sapiens, UniProt P41229); test: AlphaScreen in vitro demethylase assay; format: biochemical; conditions: IC50 ± SD (number of replicates)
Description: (§1) IC50 values were determined as previously described. The following amendments were made to the protocol for carrying out 2-OG competition assays.

[3] = target: T2, KDM3A (Homo sapiens, UniProt Q9Y4C1); test: AlphaScreen in vitro demethylase assay; format: biochemical; conditions: IC50 ± SD (number of replicates)
T2 sequence (Q9Y4C1 1-1321): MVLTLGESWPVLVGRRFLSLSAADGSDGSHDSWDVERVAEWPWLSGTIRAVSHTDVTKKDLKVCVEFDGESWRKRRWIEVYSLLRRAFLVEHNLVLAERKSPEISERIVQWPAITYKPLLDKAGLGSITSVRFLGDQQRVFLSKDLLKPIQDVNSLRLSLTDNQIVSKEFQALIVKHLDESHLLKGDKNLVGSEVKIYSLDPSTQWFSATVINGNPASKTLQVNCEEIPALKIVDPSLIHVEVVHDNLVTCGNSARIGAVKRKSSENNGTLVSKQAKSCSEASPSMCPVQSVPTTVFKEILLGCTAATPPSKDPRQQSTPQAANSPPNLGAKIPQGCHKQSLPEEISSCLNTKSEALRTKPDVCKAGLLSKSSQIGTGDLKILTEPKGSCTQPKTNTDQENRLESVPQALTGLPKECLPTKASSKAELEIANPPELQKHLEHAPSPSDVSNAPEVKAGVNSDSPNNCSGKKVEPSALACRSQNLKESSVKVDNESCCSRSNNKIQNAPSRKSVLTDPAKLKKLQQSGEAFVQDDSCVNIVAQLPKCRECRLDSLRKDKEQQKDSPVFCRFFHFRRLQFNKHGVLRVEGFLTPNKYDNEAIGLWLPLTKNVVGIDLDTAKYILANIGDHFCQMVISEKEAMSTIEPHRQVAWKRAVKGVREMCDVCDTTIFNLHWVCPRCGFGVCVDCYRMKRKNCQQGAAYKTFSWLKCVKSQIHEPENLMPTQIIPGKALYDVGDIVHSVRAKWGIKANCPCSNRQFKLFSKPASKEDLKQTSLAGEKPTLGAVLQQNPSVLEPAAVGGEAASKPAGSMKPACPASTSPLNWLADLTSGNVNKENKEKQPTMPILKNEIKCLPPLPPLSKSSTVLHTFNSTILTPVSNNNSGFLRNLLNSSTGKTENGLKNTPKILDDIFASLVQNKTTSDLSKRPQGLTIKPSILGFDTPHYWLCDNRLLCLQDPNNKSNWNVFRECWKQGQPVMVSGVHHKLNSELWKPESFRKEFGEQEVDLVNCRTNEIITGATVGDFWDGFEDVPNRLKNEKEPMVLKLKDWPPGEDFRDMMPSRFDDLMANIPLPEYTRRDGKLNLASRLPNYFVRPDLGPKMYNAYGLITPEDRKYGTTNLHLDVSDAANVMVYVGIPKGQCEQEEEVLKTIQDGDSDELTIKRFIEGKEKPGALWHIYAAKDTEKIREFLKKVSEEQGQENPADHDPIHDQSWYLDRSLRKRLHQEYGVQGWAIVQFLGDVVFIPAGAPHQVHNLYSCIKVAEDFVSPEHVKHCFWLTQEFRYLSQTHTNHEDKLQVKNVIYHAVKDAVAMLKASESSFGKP
Description: as §1

[4] = target: T1, KDM5B; test: AlphaScreen in vitro demethylase assay; format: biochemical
Description: as §1

[5] = test system: HeLa cells; test: Hoechst 33342/Yo-Pro 3/Annexin triple staining, live cell death pattern analysis; format: cell-based
Description: Cells exposed to the inhibitors for 24 h were stained with Hoechst 33342 (1 µM), Yo-Pro 3 (1 µM) and Annexin V (0.3 μL per well) for 1 h. Cellular fluorescence was measured using the IN Cell 6000 (GE) using the following set-up parameters: bright-field transmitted light at 50% for 15 ms; Hoechst 33342 was excited by 35-ms exposure(Ex 360–400 nm/Em 410–480 nm), Yo-Pro 3 by 35-ms exposure(Ex 560–580 nm/Em 650–760 nm) and Annexin V (Alexa 488) by 45-ms exposure(Ex 460–490 nm/Em 500–550 nm). All the generated data were analysed using the IN Cell Analyser software, and three categories were distinguished: healthy cells, apoptosis and necrosis—calculated as percentage of each class for every concentration used.

[6] = target: KDM6B (Homo sapiens, UniProt O15054); test: AlphaScreen in vitro demethylase assay; format: biochemical; conditions: in vitro KDM assay, Table S3; * likely false positive due to colour quenching; read-out: KDM6B IC50
Description: as §1

[7] = target: T3, KDM4C (Homo sapiens, UniProt Q9H3R0); test: AlphaScreen in vitro demethylase assay; format: biochemical; conditions: in vitro KDM assay, Table S3; * likely false positive due to colour quenching; read-out: KDM4C IC50
T3 sequence (Q9H3R0 1-1056): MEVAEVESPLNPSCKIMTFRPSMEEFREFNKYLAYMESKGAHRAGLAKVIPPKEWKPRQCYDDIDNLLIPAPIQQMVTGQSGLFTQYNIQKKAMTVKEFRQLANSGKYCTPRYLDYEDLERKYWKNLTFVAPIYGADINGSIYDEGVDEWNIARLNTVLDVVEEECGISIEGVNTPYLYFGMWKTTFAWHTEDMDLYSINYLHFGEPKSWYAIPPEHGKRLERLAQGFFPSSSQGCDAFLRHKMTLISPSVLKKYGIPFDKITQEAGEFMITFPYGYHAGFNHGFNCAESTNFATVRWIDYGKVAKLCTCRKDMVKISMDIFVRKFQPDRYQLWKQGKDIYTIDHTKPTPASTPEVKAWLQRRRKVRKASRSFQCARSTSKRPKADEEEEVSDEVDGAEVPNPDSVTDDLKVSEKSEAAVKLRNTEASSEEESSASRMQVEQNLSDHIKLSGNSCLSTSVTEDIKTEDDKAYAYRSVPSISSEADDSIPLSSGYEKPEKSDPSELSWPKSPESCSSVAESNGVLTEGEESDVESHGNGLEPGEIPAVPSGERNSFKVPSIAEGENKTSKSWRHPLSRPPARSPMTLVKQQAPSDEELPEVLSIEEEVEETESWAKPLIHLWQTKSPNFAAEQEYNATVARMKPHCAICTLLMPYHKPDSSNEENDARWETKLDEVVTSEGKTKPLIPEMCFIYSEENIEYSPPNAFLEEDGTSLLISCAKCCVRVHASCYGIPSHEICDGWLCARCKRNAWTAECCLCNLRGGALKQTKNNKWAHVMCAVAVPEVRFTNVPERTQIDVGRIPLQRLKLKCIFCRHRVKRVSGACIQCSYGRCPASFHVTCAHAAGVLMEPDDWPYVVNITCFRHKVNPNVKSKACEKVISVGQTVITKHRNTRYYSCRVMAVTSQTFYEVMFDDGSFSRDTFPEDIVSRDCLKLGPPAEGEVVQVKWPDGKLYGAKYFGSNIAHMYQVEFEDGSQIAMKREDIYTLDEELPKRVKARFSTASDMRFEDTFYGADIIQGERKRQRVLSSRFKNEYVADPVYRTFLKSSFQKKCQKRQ
Description: as §1

[8] = test system: HeLa cells; test: Cell number in the high-content screen (DAPI staining) as measure of toxicity; conditions: concentrations used in the IF assays
Description: (§2) Immunofluorescence images of 20 fields (if not indicated otherwise) were captured through a 20× objective on a PerkinElmer Operetta or the GE IN Cell 6000 using the appropriate filters and light sources for exciting DAPI, Alexafluor 488, and Alexafluor 568 or Alexafluor 647. […] From the DAPI channel, a binary mask was created to exclude individual nuclei smaller than 100 µm^2 and those overlapping the edge of the field.

[9] = target: T1, KDM5B; parameters: method as in PMID 26741168; conditions: AlphaScreen; in vitro biochemical profiling previously reported; cited from earlier work
[10] = test system: H3K4me3 mark; test: IF assay of histone mark in HeLa cells treated with cytotoxic agents
[11] = test system: H3K27me3 mark; test: as above
[12] = test system: H3K36me2 mark; test: as above
[13] = test system: H3K9me2 mark; test: as above
[14] = test system: HeLa cells
Description: as §2

[15] = HeLa cells, 24 h, dose-dependent
[16] = in vitro KDM assay, Table S3, * likely false positive due to colour quenching, read-out: KDM5B IC50

T1 sequence (Q9UGL1 whole entry): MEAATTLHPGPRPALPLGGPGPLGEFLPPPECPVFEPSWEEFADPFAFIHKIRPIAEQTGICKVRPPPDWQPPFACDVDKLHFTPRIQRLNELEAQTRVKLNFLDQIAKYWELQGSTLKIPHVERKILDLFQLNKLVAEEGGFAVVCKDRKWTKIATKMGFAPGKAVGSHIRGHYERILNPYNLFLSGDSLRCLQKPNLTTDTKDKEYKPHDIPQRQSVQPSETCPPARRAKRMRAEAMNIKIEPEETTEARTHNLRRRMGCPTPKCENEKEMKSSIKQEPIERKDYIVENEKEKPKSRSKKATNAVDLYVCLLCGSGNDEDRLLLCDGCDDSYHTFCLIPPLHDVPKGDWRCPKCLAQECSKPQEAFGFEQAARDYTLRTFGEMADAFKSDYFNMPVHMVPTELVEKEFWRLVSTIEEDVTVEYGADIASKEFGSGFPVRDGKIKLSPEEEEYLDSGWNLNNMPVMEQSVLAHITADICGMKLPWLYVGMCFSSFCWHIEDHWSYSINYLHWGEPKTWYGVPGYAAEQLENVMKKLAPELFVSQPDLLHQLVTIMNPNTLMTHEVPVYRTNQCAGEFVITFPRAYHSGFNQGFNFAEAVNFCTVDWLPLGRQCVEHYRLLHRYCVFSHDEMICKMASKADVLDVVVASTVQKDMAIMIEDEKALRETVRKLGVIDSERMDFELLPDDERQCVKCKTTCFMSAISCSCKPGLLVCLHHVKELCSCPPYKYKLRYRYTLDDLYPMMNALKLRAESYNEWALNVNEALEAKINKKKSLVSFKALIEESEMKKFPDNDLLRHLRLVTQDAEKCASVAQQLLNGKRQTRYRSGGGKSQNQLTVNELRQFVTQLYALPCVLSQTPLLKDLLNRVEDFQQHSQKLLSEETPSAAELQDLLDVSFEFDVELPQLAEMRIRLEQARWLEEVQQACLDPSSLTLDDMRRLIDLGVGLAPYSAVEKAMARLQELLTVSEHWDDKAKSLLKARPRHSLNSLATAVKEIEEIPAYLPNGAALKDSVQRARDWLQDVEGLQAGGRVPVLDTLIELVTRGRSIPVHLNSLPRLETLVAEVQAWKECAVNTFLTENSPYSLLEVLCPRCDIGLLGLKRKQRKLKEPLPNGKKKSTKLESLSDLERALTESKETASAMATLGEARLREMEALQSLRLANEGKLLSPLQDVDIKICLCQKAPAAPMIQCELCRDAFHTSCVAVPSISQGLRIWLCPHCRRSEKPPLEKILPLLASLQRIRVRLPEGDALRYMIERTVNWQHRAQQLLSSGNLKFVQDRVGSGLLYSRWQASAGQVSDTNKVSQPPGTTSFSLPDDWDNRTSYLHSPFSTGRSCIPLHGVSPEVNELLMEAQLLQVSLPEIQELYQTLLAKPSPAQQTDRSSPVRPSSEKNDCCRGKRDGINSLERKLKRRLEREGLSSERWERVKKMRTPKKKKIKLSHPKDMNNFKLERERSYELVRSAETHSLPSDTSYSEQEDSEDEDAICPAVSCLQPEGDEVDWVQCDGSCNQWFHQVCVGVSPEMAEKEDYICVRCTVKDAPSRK
KDM6B, sequence (O15054 whole entry): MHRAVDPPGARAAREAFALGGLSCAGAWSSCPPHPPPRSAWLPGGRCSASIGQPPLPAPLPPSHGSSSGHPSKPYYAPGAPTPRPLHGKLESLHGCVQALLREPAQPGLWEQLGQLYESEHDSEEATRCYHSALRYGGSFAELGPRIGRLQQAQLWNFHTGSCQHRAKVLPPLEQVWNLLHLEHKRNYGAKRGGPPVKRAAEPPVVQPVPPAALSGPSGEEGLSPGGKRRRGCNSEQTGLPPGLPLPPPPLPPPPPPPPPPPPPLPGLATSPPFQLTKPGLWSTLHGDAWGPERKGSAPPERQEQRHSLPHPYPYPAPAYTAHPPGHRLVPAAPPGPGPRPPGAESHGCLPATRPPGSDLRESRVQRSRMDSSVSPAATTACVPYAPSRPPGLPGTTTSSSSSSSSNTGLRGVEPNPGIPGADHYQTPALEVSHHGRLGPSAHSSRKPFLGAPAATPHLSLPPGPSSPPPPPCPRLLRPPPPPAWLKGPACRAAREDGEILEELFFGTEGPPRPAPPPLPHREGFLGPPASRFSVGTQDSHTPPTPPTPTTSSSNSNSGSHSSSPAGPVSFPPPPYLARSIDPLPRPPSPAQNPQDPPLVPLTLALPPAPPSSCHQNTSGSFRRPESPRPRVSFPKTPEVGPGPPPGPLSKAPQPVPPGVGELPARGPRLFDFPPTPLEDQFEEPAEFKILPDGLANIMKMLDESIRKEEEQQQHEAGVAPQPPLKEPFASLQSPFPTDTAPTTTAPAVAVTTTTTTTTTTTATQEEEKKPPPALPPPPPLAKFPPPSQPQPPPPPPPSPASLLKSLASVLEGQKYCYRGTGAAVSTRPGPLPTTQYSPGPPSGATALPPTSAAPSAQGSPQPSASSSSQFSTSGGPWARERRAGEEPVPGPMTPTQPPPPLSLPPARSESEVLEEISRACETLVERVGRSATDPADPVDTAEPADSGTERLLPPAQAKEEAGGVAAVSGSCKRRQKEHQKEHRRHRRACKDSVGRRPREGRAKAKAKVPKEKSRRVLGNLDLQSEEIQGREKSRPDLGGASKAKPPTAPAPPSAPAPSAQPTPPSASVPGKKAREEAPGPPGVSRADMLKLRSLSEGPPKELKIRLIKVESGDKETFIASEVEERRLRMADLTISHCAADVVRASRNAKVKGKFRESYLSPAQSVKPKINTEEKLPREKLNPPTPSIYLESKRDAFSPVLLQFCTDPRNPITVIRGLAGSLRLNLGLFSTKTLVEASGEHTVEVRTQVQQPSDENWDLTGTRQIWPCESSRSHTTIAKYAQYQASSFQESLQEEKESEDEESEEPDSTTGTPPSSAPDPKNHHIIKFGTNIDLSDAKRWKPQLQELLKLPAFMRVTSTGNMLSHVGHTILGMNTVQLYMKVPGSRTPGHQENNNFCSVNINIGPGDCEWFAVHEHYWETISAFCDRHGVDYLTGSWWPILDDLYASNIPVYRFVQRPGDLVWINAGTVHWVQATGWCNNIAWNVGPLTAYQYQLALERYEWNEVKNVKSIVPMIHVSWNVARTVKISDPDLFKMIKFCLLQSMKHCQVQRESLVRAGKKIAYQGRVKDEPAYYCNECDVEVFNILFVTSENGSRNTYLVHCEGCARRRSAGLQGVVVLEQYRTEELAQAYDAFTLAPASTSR
KDM5C, sequence (P41229 whole entry): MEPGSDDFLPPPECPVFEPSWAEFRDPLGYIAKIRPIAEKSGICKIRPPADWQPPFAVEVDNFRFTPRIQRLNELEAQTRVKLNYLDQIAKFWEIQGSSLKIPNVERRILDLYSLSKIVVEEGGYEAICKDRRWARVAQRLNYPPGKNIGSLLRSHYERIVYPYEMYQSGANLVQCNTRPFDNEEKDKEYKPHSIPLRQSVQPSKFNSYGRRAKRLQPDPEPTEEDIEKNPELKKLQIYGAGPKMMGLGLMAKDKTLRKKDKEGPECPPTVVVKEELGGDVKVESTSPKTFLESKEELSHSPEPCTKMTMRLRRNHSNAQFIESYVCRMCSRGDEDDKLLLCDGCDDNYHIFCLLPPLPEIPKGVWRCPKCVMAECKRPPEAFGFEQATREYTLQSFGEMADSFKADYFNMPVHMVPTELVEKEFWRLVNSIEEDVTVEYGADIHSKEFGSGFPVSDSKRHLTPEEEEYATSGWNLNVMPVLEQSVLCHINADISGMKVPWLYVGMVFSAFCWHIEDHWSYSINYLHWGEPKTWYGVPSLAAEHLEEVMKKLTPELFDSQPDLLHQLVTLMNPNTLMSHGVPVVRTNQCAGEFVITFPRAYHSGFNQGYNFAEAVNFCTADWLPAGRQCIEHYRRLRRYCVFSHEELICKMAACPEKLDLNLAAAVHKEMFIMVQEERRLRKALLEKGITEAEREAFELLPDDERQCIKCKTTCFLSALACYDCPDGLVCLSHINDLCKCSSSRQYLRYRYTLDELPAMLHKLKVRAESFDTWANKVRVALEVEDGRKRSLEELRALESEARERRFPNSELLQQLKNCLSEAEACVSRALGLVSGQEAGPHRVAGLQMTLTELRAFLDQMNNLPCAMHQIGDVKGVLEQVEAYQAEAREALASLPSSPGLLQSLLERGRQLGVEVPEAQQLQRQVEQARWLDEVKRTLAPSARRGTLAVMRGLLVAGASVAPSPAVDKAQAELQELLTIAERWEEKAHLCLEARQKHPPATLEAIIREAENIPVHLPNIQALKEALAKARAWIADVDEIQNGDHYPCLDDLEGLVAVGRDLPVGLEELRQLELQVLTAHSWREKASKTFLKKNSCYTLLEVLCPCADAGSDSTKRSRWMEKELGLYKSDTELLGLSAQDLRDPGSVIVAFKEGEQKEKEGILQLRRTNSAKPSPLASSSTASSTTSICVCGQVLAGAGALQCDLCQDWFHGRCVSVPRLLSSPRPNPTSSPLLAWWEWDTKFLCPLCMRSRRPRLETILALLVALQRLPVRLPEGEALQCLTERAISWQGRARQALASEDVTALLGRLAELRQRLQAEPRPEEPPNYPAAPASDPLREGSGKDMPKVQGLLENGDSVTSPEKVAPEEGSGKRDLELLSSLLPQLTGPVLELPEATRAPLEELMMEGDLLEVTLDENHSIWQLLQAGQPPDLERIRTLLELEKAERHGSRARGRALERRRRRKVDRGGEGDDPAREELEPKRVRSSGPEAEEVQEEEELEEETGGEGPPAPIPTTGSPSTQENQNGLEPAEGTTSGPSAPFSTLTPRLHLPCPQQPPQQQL

Clc1ccc(N/N=C(/c2ccccc2)c2ccccn2)nc1 [JIB-04 Z]
EC50 [1]: > 100 µM | IC50 [2]: > 10 µM | IC50 [3]: > 10 µM | IC50 ([4]; AlphaScreen, IC50 ± SD (number of replicates), read-out: KDM5B IC50, in vitro): 7.01 µM

CN[C@@H]1C[C@H]2O[C@@](C)([C@@H]1OC)n1c3ccccc3c3c4c(c5c6ccccc6n2c5c31)C(=O)NC4 [Staurosporine, staurosporine]
Cell death in triple staining (healthy, apoptotic, necrotic), in words [5, 15]: predominant apoptotic staining | IC50 [6]: > 100 µM | IC50 [4, 16]: > 100 µM | IC50 [7]: > 100 µM

O=C(O)c1ccc(O)c2ncccc12 [IOX1]
EC50 [1]: 62 µM | Effect on H3K4me3 mark in KDM5B IF assay, in words [1]: dose-dependent increase of H3K4me3 | Toxicity as measured by cell count (number of cells, DAPI staining) [8]: only observed cell toxicity at high concentrations | Cell death in triple staining (healthy, apoptotic, necrotic), in words [5, 15]: little to no cell toxicity | IC50 [9]: 20.6 ± 9 µM

CCOC(=O)CCNc1cc(N2CCc3ccccc3CC2)nc(-c2cccnc2)n1 [GSK-J5]
Toxicity as measured by cell count (number of cells, DAPI staining) [8]: only minor toxicity at the highest concentrations used | necrotic cells ([5]; HeLa cells, 50 µM): about 60%

CC(=O)O[C@H]1C(=O)[C@@]2(C)[C@H]([C@H](OC(=O)c3ccccc3)[C@]3(O)C[C@H](OC(=O)[C@H](O)[C@@H](NC(=O)c4ccccc4)c4ccccc4)C(C)=C1C3(C)C)[C@]1(OC(C)=O)CO[C@@H]1C[C@@H]2O [Paclitaxel, paclitaxel]
Toxicity as measured by cell count (number of cells, DAPI staining) [8]: induced cell death | Effect on H3K4me3 levels, in words [10]: dose-dependent increase of H3K4me3 | Effect on H3K27me3 mark, in words [11]: profound effect | Cell death in triple staining (healthy, apoptotic, necrotic), in words [5]: predominant apoptotic staining | IC50 [6]: > 100 µM | IC50 [4, 16]: > 100 µM | IC50 [7]: > 100 µM | Effect on H3K36me2 levels, in words [12]: only marginally affected | Effect on H3K9me2 levels, in words [13]: not affected

CCOC(=O)CCNc1cc(N2CCc3ccccc3CC2)nc(-c2ccccn2)n1 [GSK-J4]
Effect on H3K4me3 mark in KDM5B IF assay, in words [1]: increase of the H3K4me3 mark | Toxicity as measured by cell count (number of cells, DAPI staining) [14]: only minor toxicity at the highest concentrations used

COc1cccc2c1C(=O)c1c(O)c3c(c(O)c1C2=O)C[C@@](O)(C(=O)CO)C[C@@H]3O[C@H]1C[C@H](N)[C@H](O)[C@H](C)O1 [Doxorubicin, doxorubicin]
Toxicity as measured by cell count (number of cells, DAPI staining) [8]: induced cell death | Effect on H3K4me3 levels, in words [10]: no effect on this mark | Effect on H3K27me3 mark, in words [11]: profound effect | Cell death in triple staining (healthy, apoptotic, necrotic), in words [5]: predominant apoptotic staining | Effect on H3K36me2 levels, in words [12]: only marginally affected | Effect on H3K9me2 levels, in words [13]: some increase
